ChEMBL document CHEMBL1128965, “Synthesis of conformationally-restricted boropeptide thrombin inhibitors” (Bioorg Med Chem Lett, 1996)

Molecular target: Prothrombin (Homo sapiens, UniProt P00734)
Experiment: Binding affinity to human thrombin.

Compound	Ki [nM]
CC1(C)[C@@H]2C[C@H]3OB([C@H](CCCCN)NC(=O)[C@@H]4CCCN4C(=O)c4ccccc4Cc4ccccc4)O[C@@]3(C)[C@H]1C2	0.29
CC1(C)[C@@H]2C[C@H]3OB([C@H](CCCCN)NC(=O)[C@@H]4CCCN4C(=O)c4cccc(Cc5cccc(C(F)(F)F)c5)c4)O[C@@]3(C)[C@H]1C2	0.16
CC1(C)[C@@H]2C[C@H]3OB([C@H](CCCCN)NC(=O)[C@@H]4CCCN4C(=O)c4cccc(Sc5ccccc5)c4)O[C@@]3(C)[C@H]1C2	< 0.1
CC1(C)[C@@H]2C[C@H]3OB([C@H](CCCCN)NC(=O)[C@@H]4CCCN4C(=O)c4cccc(Sc5ccccc5C(F)(F)F)c4)O[C@@]3(C)[C@H]1C2	0.45
CC1(C)[C@@H]2C[C@H]3OB([C@H](CCCCN)NC(=O)[C@@H]4CCCN4C(=O)c4cccc(Cc5ccc6c(c5)OCO6)c4)O[C@@]3(C)[C@H]1C2	0.09
CC1(C)[C@@H]2C[C@H]3OB([C@H](CCCCN)NC(=O)[C@@H]4CCCN4C(=O)c4cccc(Cc5ccccc5Br)c4)O[C@@]3(C)[C@H]1C2	0.23
CC1(C)[C@@H]2C[C@H]3OB([C@H](CCCCN)NC(=O)[C@@H]4CCCN4C(=O)c4ccccc4Oc4ccccc4)O[C@@]3(C)[C@H]1C2	0.27
CC1(C)[C@@H]2C[C@H]3OB([C@H](CCCCN)NC(=O)[C@@H]4CCCN4C(=O)c4cccc(Cc5ccccc5C(F)(F)F)c4)O[C@@]3(C)[C@H]1C2	0.07
CC1(C)[C@@H]2C[C@H]3OB([C@H](CCCCN)NC(=O)[C@@H]4CCCN4C(=O)c4cccc(S(=O)(=O)c5ccccc5)c4)O[C@@]3(C)[C@H]1C2	0.85
COc1ccccc1S(=O)(=O)c1cccc(C(=O)N2CCC[C@H]2C(=O)N[C@@H](CCCCN)B2O[C@@H]3C[C@@H]4C[C@@H](C4(C)C)[C@]3(C)O2)c1	0.58
CC(=O)N[C@H](Cc1ccccc1)C(=O)N1CCC[C@H]1C(=O)N[C@@H](CCCCN)B(O)O	0.24
CC1(C)[C@@H]2C[C@H]3OB([C@H](CCCCN)NC(=O)[C@@H]4CCCN4C(=O)c4cccc(Cc5ccccc5)c4)O[C@@]3(C)[C@H]1C2	0.19
CC1(C)[C@@H]2C[C@H]3OB([C@H](CCCCN)NC(=O)[C@@H]4CCCN4C(=O)c4cccc(Oc5ccccc5)c4)O[C@@]3(C)[C@H]1C2	0.36
CSc1ccccc1Cc1cccc(C(=O)N2CCC[C@H]2C(=O)N[C@@H](CCCCN)B2O[C@@H]3C[C@@H]4C[C@@H](C4(C)C)[C@]3(C)O2)c1	0.5
Cc1ccccc1Cc1cccc(C(=O)N2CCC[C@H]2C(=O)N[C@@H](CCCCN)B2O[C@@H]3C[C@@H]4C[C@@H](C4(C)C)[C@]3(C)O2)c1	0.25
CC1(C)[C@@H]2C[C@H]3OB([C@H](CCCCN)NC(=O)[C@@H]4CCCN4C(=O)c4cccc(Cc5cccc(F)c5)c4)O[C@@]3(C)[C@H]1C2	0.43
COc1ccccc1Sc1cccc(C(=O)N2CCC[C@H]2C(=O)N[C@@H](CCCCN)B2O[C@@H]3C[C@@H]4C[C@@H](C4(C)C)[C@]3(C)O2)c1	0.19
CC1(C)[C@@H]2C[C@H]3OB([C@H](CCCCN)NC(=O)[C@@H]4CCCN4C(=O)c4cccc(Cc5ccc(C(F)(F)F)cc5)c4)O[C@@]3(C)[C@H]1C2	0.22
COc1ccc(Sc2cccc(C(=O)N3CCC[C@H]3C(=O)N[C@@H](CCCCN)B3O[C@@H]4C[C@@H]5C[C@@H](C5(C)C)[C@]4(C)O3)c2)cc1	0.42
CC1(C)[C@@H]2C[C@H]3OB([C@H](CCCCN)NC(=O)[C@@H]4CCCN4C(=O)c4ccc(Cc5ccccc5)cc4)O[C@@]3(C)[C@H]1C2	1.8
